# Measured values as given in US20150148383A1, “Methods for Inhibiting or Reversing Epiretinal Membrane Formation” (Regenerative Research Foundation, priority 2013, published 2015).
# Experiments:
# RPE cells [1] = experiment: RPE morphology in vitro by light microscopy; type: cell-based, human; conditions: 10 mM nicotinamide vs no nicotinamide
# Source text: (§1) Primary adult RPE cells were obtained from cadaveric human eyes under IRB-approved protocols, within 36-hours of the time of death. The anterior half of the eye was removed followed by the vitreous, and retina, isolating the posterior eyecup with the RPE/Bruch's membrane/choroid complex intact (as described in Blenkinsop T A, et al. The culture and maintenance of functional retinal pigment epithelial monolayers from adult human eye. 2012; Salero E et al. Adult human RPE can be activated into a multipotent stem cell that produces mesenchymal derivatives. Cell Stem Cell. 2012; 10(1):88-95). […] Once the primary (passage zero) cells reached confluence (˜20 days), the FBS concentration was reduced to 5%. Then, following the protocol developed by Salero S et al., 2012 (supra), the RPE were activated to proliferate in RPE medium with 5% FBS. The expanded RPE cells were plated at 30,000 cells per well in a 24-well plate and cultured in DMEM/F12, 5% FBS. Proliferation rates were measured by manual and/or automated counting of cell number as a function of time.
# Cultures were imaged at 32× on a Zeiss Observer.D1 fluorescent microscope.
# Cultured RPE cells were analyzed by light microscopy.
# RPE cells [2] = experiment: Dose response for prevention of epithelial to mesenchymal transition, SNAIL staining read-out; type: cell-based, human; conditions: all concentrations: 10 μM, 100 μM, 1 mM or 10 mM nicotinamide; 5 days
# Description: Cells were fixed with 4% paraformaldehyde for 15 minutes, permeabilized with 0.2% Triton in PBS, blocked with 1% BSA for 30 minutes. Primary antibodies were used at 1:100 dilution in PBS. The corresponding Alexafluor 647 secondary antibodies were used for the respective primary antibody and imaged on a Zeiss Observer.D1 fluorescent microscope. A dose response curve for the effect of nicotinamide on the prevention of epithelial to mesenchymal transition was determined using SNAIL expression as a read-out. RPE cells were cultured at 30,000 cells/well in a 24 well plate and cultured for 5 days in the presence of media containing 10 μM, 100 μM, 1 mM or 10 mM nicotinamide or control (no nicotinamide). The media was changed 3 times, and replaced with media containing the same concentration of nicotinamide, after which the cells were fixed and stained with fluorescently-labeled anti-SNAIL antibody. At all concentrations, SNAIL staining was decreased by application of nicotinamide.
# human RPE cells = experiment: ZO-1 tight junction protein immunostaining; type: cell-based
# Description: Cells were fixed with 4% paraformaldehyde for 15 minutes, permeabilized with 0.2% Triton in PBS, blocked with 1% BSA for 30 minutes. Primary antibodies were used at 1:100 dilution in PBS. The corresponding Alexafluor 647 secondary antibodies were used for the respective primary antibody and imaged on a Zeiss Observer.D1 fluorescent microscope.
# Adult human RPE [3] = experiment: Transepithelial resistance (TER) of RPE on transwells; type: cell-based; conditions: measured weekly for one month; presence vs absence of nicotinamide
# Description: The transepithelial resistance (TER) is measured during and after treatment of hRPE cells cultured in 12-well 0.4 μm transwell inserts using the EVOM2 World Precision Instruments Volt Ohm Meter protocol. Resistance is measured in Ω-cm^2 and recorded prior to treatment to confirm that all wells are at approximately the same TER. The TER of a cell-free transwell insert of ˜110 Ω-cm^2 is subtracted to obtain the resistance of the cellular epithelium. TER is measured in each well after treatment to assess the change caused by nicotinamide. Adult human RPE were plated on semi-permeable polyester transwells and transepithelial resistance was measured weekly for one month.
# [4] = test system: fibroblastic cultures derived from RPE; experiment: Reversal of epithelial to mesenchymal transition in fibroblastic cultures derived from RPE; type: cell-based, human; conditions: 10 mM nicotinamide, media changed 3 times a week; micrograph at 8 weeks
# Description: Epithelial to mesenchymal transition (EMT) was determined in fibroblastic cultures as follows: cells were plated 30,000 cells per 1 cm^2 tissue culture plate in DMEM/F12 with 5% FBS with the addition of 10 ng/ml TGFβ and 10 ng/ml TNFα to induce epithelial to mesenchymal transition (EMT). The extent of EMT was determined by the morphologic changes and immunohistochemical stains described above. Epithelial cells were plated at 30,000 cells/cm^2 and cultured until confluent (left image), after which 10 mM nicotinamide was added to the media, which was changed 3 times a week for 8 weeks (FIG. 10). The swirling fibroblastic morphology seen prior to addition of nicotinamide seen at the ‘3 week’ stage indicate the RPE cells have undergone EMT, losing their cobblestone morphology.
# Adult human RPE [5] = experiment: Oxidative stress analysis: TBHP-induced TIMP-3 expression; conditions: 500 μM TBHP 2 hours daily; presence vs absence of nicotinamide; quantitative PCR
# RPE cells [6] = experiment: RPE cell proliferation assay (Ki67 immunostaining, cell number); type: cell-based, human; conditions: 10 mM nicotinamide; 5 days in DMEM/F12, 5% FBS
# Source text: as §1
# Cells were fixed with 4% paraformaldehyde for 15 minutes, permeabilized with 0.2% Triton in PBS, blocked with 1% BSA for 30 minutes. Primary antibodies were used at 1:100 dilution in PBS. […]
# RPE cells were plated at 30,000 cells per well in a 24 well plate and cultured for 5 days in DMEM/F12, 5% FBS and cell proliferation was measured.
# adult human RPE cells = experiment: Gene expression analysis by real time PCR of RPE and mesenchymal markers; type: cell-based; conditions: 10 mM nicotinamide, relative to control
compound,measurement,setting,value
"NC(=O)c1cccnc1 [nicotinamide, Nicotinamide]",RPE cell morphology,RPE cells [1],maintained their characteristic cobblestone morphology
same,SNAIL staining,RPE cells [2],decreased
same,pattern of ZO-1 expression,human RPE cells; 10 mM nicotinamide vs control RPE cells,localized expression of tight junction protein ZO-1 peripherally around the cell borders
same,ZO1 staining (junctional marker),human RPE cells; 10 mM nicotinamide vs no nicotinamide,high levels of ZO1 staining
same,transepithelial resistance,Adult human RPE [3],increased over time
same,cell morphology after EMT (reversal of EMT),[4],revert to their physiologic cobblestone morphology
same,TBHP-induced TIMP3 expression relative to day 0,Adult human RPE [5],suppressed
same,immunostaining for the cell proliferation marker Ki67,RPE cells [6],decreased immunostaining
same,total cell number,RPE cells [6],decrease in the total cell number
same,MITF mRNA expression (RPE marker),adult human RPE cells,increased
same,RPE65 mRNA expression (RPE marker),adult human RPE cells,increased
same,SLUG mRNA expression (mesenchymal marker),adult human RPE cells,decreased
same,SNAIL mRNA expression (mesenchymal marker),adult human RPE cells,decreased
same,TWIST mRNA expression (mesenchymal marker),adult human RPE cells,decreased
